According to patent US9738634B2, “Heterocyclic amide compound and herbicide” (SYNGENTA PARTICIPATIONS AG, priority 2013, dated 2017):

Tests used:
Type in all cases: in vivo
barnyard grass [1] = experiment: Test Example 1: weedkilling efficacy, preemergent weed treatment in the submerged state; A: barnyard grass; conditions: treatment dosage 252 g/ha
How it was run: (§1)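 Pots of alluvial soil were flooded to a 4 cm depth. Mixed weed seeds were sown and 2.5 leaf-stage rice seedlings transplanted. On sowing day, water-diluted emulsion was applied to the water surface (dose in g/ha). After 3 weeks at 25–30 °C, effects were rated.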

bulrush [2] = experiment: Test Example 1: weedkilling efficacy, preemergent weed treatment in the submerged state; B: bulrush; conditions: treatment dosage 252 g/ha
How it was run: as §1

oval-leafed pondweed [3] = experiment: Test Example 1: weedkilling efficacy, preemergent weed treatment in the submerged state; C: oval-leafed pondweed; conditions: treatment dosage 252 g/ha
How it was run: as §1

transplanted rice = experiment: Test Example 1: preemergent weed treatment in the submerged state, effect on crop; a: transplanted rice; conditions: treatment dosage 252 g/ha
How it was run: as §1

barnyard grass [4] = experiment: Test Example 2: weedkilling efficacy, growth period weed treatment in the submerged state; A: barnyard grass; conditions: treatment dosage 252 g/ha
How it was run: (§2)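 Weeds treated at the 1-2 leaf stage by application of diluted emulsion onto floodwater (4 cm depth, alluvial soil) at specified g/ha. Grown in greenhouse at 25 to 30° C; herbicidal effect rated three weeks after treatment.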

bulrush [5] = experiment: Test Example 2: weedkilling efficacy, growth period weed treatment in the submerged state; B: bulrush; conditions: treatment dosage 252 g/ha
How it was run: as §2

oval-leafed pondweed [6] = experiment: Test Example 2: weedkilling efficacy, growth period weed treatment in the submerged state; C: oval-leafed pondweed; conditions: treatment dosage 252 g/ha
How it was run: as §2

crabgrass [7] = experiment: Test Example 3: weedkilling efficacy through soil treatment; D: crabgrass; conditions: treatment dosage 315 g/ha
How it was run: (§3)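 Crop and weed responses were judged three weeks after a uniform surface spray of the water-diluted emulsion at the given g/ha rate. Seeds sat beneath about 1.5 cm of sterilized diluvial soil, and boxes stood in a greenhouse at 25 to 30° C.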

green foxtail [8] = experiment: Test Example 3: weedkilling efficacy through soil treatment; E: green foxtail; conditions: treatment dosage 315 g/ha
How it was run: as §3

wild oat [9] = experiment: Test Example 3: weedkilling efficacy through soil treatment; G: wild oat; conditions: treatment dosage 315 g/ha
How it was run: as §3

black-grass [10] = experiment: Test Example 3: weedkilling efficacy through soil treatment; H: black-grass; conditions: treatment dosage 315 g/ha
How it was run: as §3

Italian ryegrass [11] = experiment: Test Example 3: weedkilling efficacy through soil treatment; I: Italian ryegrass; conditions: treatment dosage 315 g/ha
How it was run: as §3

Indian mallow [12] = experiment: Test Example 3: weedkilling efficacy through soil treatment; K: Indian mallow; conditions: treatment dosage 315 g/ha
How it was run: as §3

redroot pigweed [13] = experiment: Test Example 3: weedkilling efficacy through soil treatment; L: redroot pigweed; conditions: treatment dosage 315 g/ha
How it was run: as §3

fig-leafed goosefoot [14] = experiment: Test Example 3: weedkilling efficacy through soil treatment; M: fig-leafed goosefoot; conditions: treatment dosage 315 g/ha
How it was run: as §3

chickweed [15] = experiment: Test Example 3: weedkilling efficacy through soil treatment; N: chickweed; conditions: treatment dosage 315 g/ha
How it was run: as §3

birds-eye speedwell = experiment: Test Example 3: weedkilling efficacy through soil treatment; p: birds-eye speedwell; conditions: treatment dosage 315 g/ha
How it was run: as §3

directly sown rice [16] = experiment: Test Example 3: soil treatment, effect on crop; b: directly sown rice; conditions: treatment dosage 315 g/ha
How it was run: as §3

corn [17] = experiment: Test Example 3: soil treatment, effect on crop; c: corn; conditions: treatment dosage 315 g/ha
How it was run: as §3

soybean [18] = experiment: Test Example 3: soil treatment, effect on crop; d: soybean; conditions: treatment dosage 315 g/ha
How it was run: as §3

wheat [19] = experiment: Test Example 3: soil treatment, effect on crop; e: wheat; conditions: treatment dosage 315 g/ha
How it was run: as §3

beet [20] = experiment: Test Example 3: soil treatment, effect on crop; f: beet; conditions: treatment dosage 315 g/ha
How it was run: as §3

crabgrass [21] = experiment: Test Example 4: weedkilling efficacy by foliar treatment; D: crabgrass; conditions: treatment dosage 315 g/ha
How it was run: (§4)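 Seeds are spot-sown into sterilized diluvial soil and covered with about 1.5 cm of soil. After 14 days' greenhouse growth at 25 to 30° C, plants are sprayed on stems and leaves with diluted emulsion at the stated g/ha rate, then scored at 3 weeks.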

green foxtail [22] = experiment: Test Example 4: weedkilling efficacy by foliar treatment; E: green foxtail; conditions: treatment dosage 315 g/ha
How it was run: as §4

wild oat [23] = experiment: Test Example 4: weedkilling efficacy by foliar treatment; G: wild oat; conditions: treatment dosage 315 g/ha
Experimental: Testing of Weedkilling Efficacy by Foliar Treatment
Sterilized diluvial soil was introduced into 21 cm long, 13 cm wide, 7 cm deep plastic boxes, and seeds of crabgrass, green foxtail, barnyard grass, wild oat, black-grass, Italian ryegrass, common wind-grass, Indian mallow, redroot pigweed, fig-leafed goosefoot, chickweed, catchweed, birds-eye speedwell, corn, soybean, rice, wheat, beet and rapeseed were each spot-sown, and covered with about 1.5 cm of soil, then the plants were grown in a greenhouse at 25 to 30° C.
After they had grown for 14 days, emulsions of compounds of the present invention prepared according to compounding example 2 were diluted with water to give the specified dosages, and applied uniformly onto the stem and leaf parts with a small sprayer. 3 weeks after the pesticide treatment the effect on each type of plant was investigated on the basis of the assessment criteria of test example 1.
A: barnyard grass, B: bulrush, C: oval-leafed pondweed, D: crabgrass, E: green foxtail, F: barnyard grass, G: wild oat, H: black-grass, I: Italian ryegrass, J: common wind-grass, K: Indian mallow, L: redroot pigweed, M: fig-leafed goosefoot, N: chickweed, O: catchweed, p: birds-eye speedwell, a: transplanted rice, b: directly sown rice, c: corn, d: soybean, e: wheat, f: beet, g: rapeseed
Further, pesticide dosage (g/ha) indicates the concentration regulated such that treatment was with only the stated number of grams (g), when calculated per hectare (ha).

black-grass [24] = experiment: Test Example 4: weedkilling efficacy by foliar treatment; H: black-grass; conditions: treatment dosage 315 g/ha
How it was run: as §4

Italian ryegrass [25] = experiment: Test Example 4: weedkilling efficacy by foliar treatment; I: Italian ryegrass; conditions: treatment dosage 315 g/ha
How it was run: as §4

Indian mallow [26] = experiment: Test Example 4: weedkilling efficacy by foliar treatment; K: Indian mallow; conditions: treatment dosage 315 g/ha
How it was run: as §4

redroot pigweed [27] = experiment: Test Example 4: weedkilling efficacy by foliar treatment; L: redroot pigweed; conditions: treatment dosage 315 g/ha
How it was run: as §4

fig-leafed goosefoot [28] = experiment: Test Example 4: weedkilling efficacy by foliar treatment; M: fig-leafed goosefoot; conditions: treatment dosage 315 g/ha
How it was run: as §4

chickweed [29] = experiment: Test Example 4: weedkilling efficacy by foliar treatment; N: chickweed; conditions: treatment dosage 315 g/ha
How it was run: as §4

catchweed = experiment: Test Example 4: weedkilling efficacy by foliar treatment; O: catchweed; conditions: treatment dosage 315 g/ha
How it was run: as §4

directly sown rice [30] = experiment: Test Example 4: foliar treatment, effect on crop; b: directly sown rice; conditions: treatment dosage 315 g/ha
How it was run: as §4

corn [31] = experiment: Test Example 4: foliar treatment, effect on crop; c: corn; conditions: treatment dosage 315 g/ha
How it was run: as §4

soybean [32] = experiment: Test Example 4: foliar treatment, effect on crop; d: soybean; conditions: treatment dosage 315 g/ha
How it was run: as §4

wheat [33] = experiment: Test Example 4: foliar treatment, effect on crop; e: wheat; conditions: treatment dosage 315 g/ha
How it was run: as §4

beet [34] = experiment: Test Example 4: foliar treatment, effect on crop; f: beet; conditions: treatment dosage 315 g/ha
How it was run: as §4

CC1=C(c2ccccc2)C(=O)N(C(C)(C)C(=O)Nc2cccc(F)n2)CO1 [B-2-27]
A (barnyard grass) weedkilling efficacy grade (barnyard grass [1]): 5 (weed kill ratio 90% or more, (practically complete withering)) | B (bulrush) weedkilling efficacy grade (bulrush [2]): 5 (weed kill ratio 90% or more, (practically complete withering)) | C (oval-leafed pondweed) weedkilling efficacy grade (oval-leafed pondweed [3]): 5 (weed kill ratio 90% or more, (practically complete withering)) | a (transplanted rice) effect on crop grade (transplanted rice): 0 (weed kill ratio 5% or less (practically no effect)) | A (barnyard grass) weedkilling efficacy grade (barnyard grass [4]): 4 (weed kill ratio 70% or more, less than 90%) | B (bulrush) weedkilling efficacy grade (bulrush [5]): 5 (weed kill ratio 90% or more, (practically complete withering)) | C (oval-leafed pondweed) weedkilling efficacy grade (oval-leafed pondweed [6]): 5 (weed kill ratio 90% or more, (practically complete withering)) | D (crabgrass) weedkilling efficacy grade (crabgrass [7]): 5 (weed kill ratio 90% or more, (practically complete withering)) | E (green foxtail) weedkilling efficacy grade (green foxtail [8]): 5 (weed kill ratio 90% or more, (practically complete withering)) | G (wild oat) weedkilling efficacy grade (wild oat [9]): 5 (weed kill ratio 90% or more, (practically complete withering)) | H (black-grass) weedkilling efficacy grade (black-grass [10]): 5 (weed kill ratio 90% or more, (practically complete withering)) | I (Italian ryegrass) weedkilling efficacy grade (Italian ryegrass [11]): 5 (weed kill ratio 90% or more, (practically complete withering)) | K (Indian mallow) weedkilling efficacy grade (Indian mallow [12]): 5 (weed kill ratio 90% or more, (practically complete withering)) | L (redroot pigweed) weedkilling efficacy grade (redroot pigweed [13]): 5 (weed kill ratio 90% or more, (practically complete withering)) | M (fig-leafed goosefoot) weedkilling efficacy grade (fig-leafed goosefoot [14]): 5 (weed kill ratio 90% or more, (practically complete withering)) | N (chickweed) weedkilling efficacy grade (chickweed [15]): 5 (weed kill ratio 90% or more, (practically complete withering)) | P (birds-eye speedwell) weedkilling efficacy grade (birds-eye speedwell): 5 (weed kill ratio 90% or more, (practically complete withering)) | b (directly sown rice) effect on crop grade (directly sown rice [16]): 5 (weed kill ratio 90% or more, (practically complete withering)) | c (corn) effect on crop grade (corn [17]): 4 (weed kill ratio 70% or more, less than 90%) | d (soybean) effect on crop grade (soybean [18]): 5 (weed kill ratio 90% or more, (practically complete withering)) | e (wheat) effect on crop grade (wheat [19]): 5 (weed kill ratio 90% or more, (practically complete withering)) | f (beet) effect on crop grade (beet [20]): 4 (weed kill ratio 70% or more, less than 90%) | D (crabgrass) weedkilling efficacy grade (crabgrass [21]): 5 (weed kill ratio 90% or more, (practically complete withering)) | E (green foxtail) weedkilling efficacy grade (green foxtail [22]): 5 (weed kill ratio 90% or more, (practically complete withering)) | G (wild oat) weedkilling efficacy grade (wild oat [23]): 5 (weed kill ratio 90% or more, (practically complete withering)) | H (black-grass) weedkilling efficacy grade (black-grass [24]): 5 (weed kill ratio 90% or more, (practically complete withering)) | I (Italian ryegrass) weedkilling efficacy grade (Italian ryegrass [25]): 5 (weed kill ratio 90% or more, (practically complete withering)) | K (Indian mallow) weedkilling efficacy grade (Indian mallow [26]): 4 (weed kill ratio 70% or more, less than 90%) | L (redroot pigweed) weedkilling efficacy grade (redroot pigweed [27]): 4 (weed kill ratio 70% or more, less than 90%) | M (fig-leafed goosefoot) weedkilling efficacy grade (fig-leafed goosefoot [28]): 3 (weed kill ratio 40% or more, less than 70%) | N (chickweed) weedkilling efficacy grade (chickweed [29]): 4 (weed kill ratio 70% or more, less than 90%) | O (catchweed) weedkilling efficacy grade (catchweed): 4 (weed kill ratio 70% or more, less than 90%) | b (directly sown rice) effect on crop grade (directly sown rice [30]): 5 (weed kill ratio 90% or more, (practically complete withering)) | c (corn) effect on crop grade (corn [31]): 4 (weed kill ratio 70% or more, less than 90%) | d (soybean) effect on crop grade (soybean [32]): 4 (weed kill ratio 70% or more, less than 90%) | e (wheat) effect on crop grade (wheat [33]): 4 (weed kill ratio 70% or more, less than 90%) | f (beet) effect on crop grade (beet [34]): 4 (weed kill ratio 70% or more, less than 90%)
